# From patent publication US10980866B2, “Alpha-1 anti-trypsin for treating liver diseases” (Hadasit Medical Research Services and Development Ltd., priority 2014, dated 2021)
# Entries after “also recorded” stand apart in the source; their conditions may differ.
# Key:
# [1] = system: ConA-induced hepatitis mouse model; experiment: Concanavalin A-induced hepatitis model, serum liver enzymes (ALT, AST); type: in vivo, mice (C57BL/6)
# Experimental: (§1) Animals—Male C57BL/6 mice (11-12 weeks old) were obtained from Harlan Laboratories (Jerusalem, Israel) and were maintained in the Animal Core of the Hadassah-Hebrew University Medical School. The mice received standard laboratory food and water ad libitum and were housed in a 12-hour light/dark cycle. All animal experiments were performed according to the guidelines and with the approval of the Hebrew University-Hadassah Institutional Committee for the Care and Use of Laboratory Animals.
# (§2) Concanavalin A-induced hepatitis model—Concanavalin A (ConA, MP Biomedicals, USA) was dissolved in a solution consisting of 50 mM Tris pH 7, 150 mM NaCl, and 4 mM CaCl2 and injected into the tail vein at a dose of 500 μg/mouse (15 mg/kg) in 250 μl. Mice were sacrificed 15 hours following ConA injection. Mice (n=5-6 mice per group) were administered orally or intraperitoneally (IP), as indicated, DDW (control); Dexamethasone (0.35 mg/mouse, control); or alpha-1 anti-trypsin (AAT, Sigma A-9024) at a dose of 0.2, 0.35, 1.0 or 2.0 mg per mouse, 2 hours prior ConA treatment.
# (§3) Assessment of Liver toxicity—Serum was obtained from individual mice at the indicated times and the levels of aspartate aminotransferase (AST) and alanine aminotransferase (ALT) were determined using a standard automated analyzer.
# [2] = system: ConA-induced hepatitis mouse model; experiment: Concanavalin A-induced hepatitis model, liver histology score (H&E); type: in vivo, mice (C57BL/6); conditions: 15 hours following ConA; for Infiltrating leukocytes (%) / Lymphocyte adhesion (%) / Necrotic lesions (%): histological score, mean ± SD, AAT 0.35 mg/mouse IP, Dexamethasone 0.35 mg/mouse
# Experimental: as §1, §2
# Histology—Mice were sacrificed at the indicated times and their livers were harvested. Paraffin-embedded liver sections were prepared from and sliced into 4-5 μm-thick sections and stained with hematoxylin-eosin (H&E). The sections were scored according to the extent of liver damage using a previously described method^13, 14 with the following parameters: lymphocyte adhesion to hepatic and portal veins and sinusoids, the number of infiltrating leukocytes into the liver parenchyma, and the number of necrotic lesions (all per 10× high-power field).
# [3] = system: high fat diet (HFD) mouse model; experiment: High fat diet (HFD) with or without methionine choline deficient diet (MCD) fatty liver model; type: in vivo, mice (C57Bl); conditions: Example 3
# Experimental: The effect of AAT on fatty liver disease is assessed by determining liver toxicity in a high fat diet (HFD) with or without methionine choline deficient diet (MCD) mouse model.
# Blood is taken from the tail vein at the indicated time points and analyzed for:
# Mice are sacrificed 14 weeks following beginning of treatment and analyzed for: • Weight • Epididymal fat weight (eq to visceral fat in humans) • MRI—to look at steatosis • ALT, AST • Serum for cytokines-what cytokines: IL2, 6, 4, 5, 12, IFN (gamma), TNF and TGF. IL-10, il-4, il-13, mcp1, • Adipokine—adiponectin which is anti-inflammatory adipokine and visfalatin • CBC including eosinophils • FACS for subsets of T cells • Assessment of eotaxin levels in the liver and in the adipose tissue by mRNA • Collect serum for Lipidomics to be conducted by OWL in Spain • Collect serum for mRNA of lymphocytes, to be performed in the USA by Ilumina sequencing machines • Liver fat quantification • Liver biopsy followed by histological evaluation: • 1. H&E staining • 2. Fat staining (IHC): Oil-R-O (frozen sections) • X2 non stained slides (paraffin embedded) • Snap freeze −80, ×3 samples (from each animal). • Assessment of fibrosis based on staining
# [4] = system: ConA-induced hepatitis mouse model; experiment: Concanavalin A-induced hepatitis model, serum IFN-γ by ELISA; type: in vivo, mice (C57BL/6); conditions: 15 hours following ConA
# Experimental: as §1, §2
# Cytokine measurement—Serum IFN-γ levels were measured at the indicated times in each animal using a commercially available ELISA kit (Quantikine, R&D Systems, MN, USA) according to manufacturer's instructions.
# [5] = system: APAP-mediated liver damage mouse model; experiment: Acetaminophen-mediated hepatotoxicity model, serum liver enzymes; type: in vivo, mice (C57BL/6); conditions: 2 hours following APAP, 24 hours following APAP, vs control (DDW)
# Experimental: as §1
# Acetaminophen-mediated hepatotoxicity model—Acetaminophen (APAP)-mediated hepatotoxicity was induced in mice via oral administration of 4 mg APAP (Tiptipot, CST). Mice (n=5 mice per group) were administered IP DDW (control) or AAT at a dose of 0.25 or 0.5 mg per mouse, 2 hours following administration of APAP
# as §3
# [6] = molecular target: 1-AZT, a misfolded but functionally active mutant of α1-antitrypsin (Homo sapiens, UniProt P01009, E366K); conditions: model cell culture system; cited from earlier work
# Sequence of 1-AZT, a misfolded but functionally active mutant of α1-antitrypsin (P01009 25-418 E366K): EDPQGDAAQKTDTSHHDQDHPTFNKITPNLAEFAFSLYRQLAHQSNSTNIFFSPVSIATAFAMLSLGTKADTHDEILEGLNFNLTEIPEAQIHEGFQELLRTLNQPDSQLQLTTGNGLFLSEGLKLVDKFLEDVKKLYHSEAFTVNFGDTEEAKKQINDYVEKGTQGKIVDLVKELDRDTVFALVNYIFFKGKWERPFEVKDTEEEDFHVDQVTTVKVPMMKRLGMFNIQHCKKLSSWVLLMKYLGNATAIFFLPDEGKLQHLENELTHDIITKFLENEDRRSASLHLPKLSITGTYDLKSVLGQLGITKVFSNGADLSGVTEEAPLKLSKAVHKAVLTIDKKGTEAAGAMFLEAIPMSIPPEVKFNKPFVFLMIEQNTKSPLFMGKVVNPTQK
# [7] = AAT orally administered, 2 hours prior ConA, 15 hours following ConA
Compound,"serum levels of the ALT liver enzyme ([1]; AAT 0.35 mg per mouse IP, 2 hours prior ConA, 15 hours following ConA, p<0.005)","mice developing severe disease (severe hepatitis, serum ALT more than 1000 IU) ([1]; AAT 0.35 mg per mouse, compared to 100% in control (DDW) group, p<0.005) [%]","serum levels of the ALT liver enzyme ([1]; AAT 1 mg per mouse IP, 2 hours prior ConA, 15 hours following ConA, p<0.005)","ALT serum levels ([1]; AAT 2 mg per mouse IP, 2 hours prior ConA, 15 hours following ConA)","AST levels ([1]; AAT IP, 2 hours prior ConA, 15 hours following ConA (FIG. 2))",number of mice developing severe disease (serum ALT more than 1000 IU) ([1]; AAT at all doses tested),"ALT levels [1, 7]","AST levels [1, 7]",overall effect on the ConA-induced hepatitis model ([1]; IP administration of AAT),number of infiltrating leukocytes into the liver parenchyma (in words) ([2]; AAT 0.35 mg per mouse IP),Infiltrating leukocytes (%) [2] [%],Lymphocyte adhesion (%) [2] [%],Necrotic lesions (%) [2] [%],symptoms of fatty liver disease [3],"serum IFNγ levels ([4]; AAT 1.0 mg per mouse IP, p<0.005)",serum IFNγ levels ([4]; AAT high dose 2.0 mg per mouse),serum IFNγ levels ([4]; AAT low dose 0.35 mg per mouse),serum levels of the AST liver enzyme ([5]; AAT 0.25 mg per mouse IP),serum levels of the AST liver enzyme ([5]; AAT 0.5 mg per mouse IP),secretion of 1-AZT [6]
alpha-1 anti-trypsin [AAT],Statistically significant reduction,50,Statistically significant reduction,no effect,corresponded to the ALT levels,reduced the number of mice developing severe disease,no effect,no effect,dose-dependent beneficial effect,significant improvement; also recorded: reduced leukocyte infiltration,2.45 ± 8.33,2.8 ± 11.89,1 ± 1.67,ameliorated symptoms of fatty liver disease,significant reduction,no significant effect,no significant effect,decrease,decrease,–
"C[C@@H]1C[C@H]2[C@@H]3CCC4=CC(=O)C=C[C@]4(C)[C@@]3(F)[C@@H](O)C[C@]2(C)[C@@]1(O)C(=O)CO [Dexamethasone, reference compound]",–,–,–,–,–,–,–,–,–,–,0.58 ± 2.5,0.58 ± 2.5,0,–,–,–,–,–,–,–
"O=C(O)CCCc1ccccc1 [PBA, 4-phenylbutyric acid]",–,–,–,–,–,–,–,–,–,–,–,–,–,–,–,–,–,–,–,marked increase
